Where “and” joins values, the source holds several entries; their conditions need not be identical. Equal entries are not always repeated.
Assays:
[1] = CLint in NADPH-supplemented human liver microsomes; conditions: for microsomal CLint at 1 µM / CLint scaled at 1 µM: human
Protocol: (§1) Calculation and scaling of CLint,u was done using the equation below and 45 mg of microsomal protein per gram of liver. HLMCLint,u=ln2/x1/t1/2(min)xmLincubation/mgmicrosomalproteinx45mgmicrosomalprotein/gliverx21gliver/kg/Fuinc

rat hepatocytes = assay: Free fraction in rat hepatocytes as surrogate for HH, equilibrium dialysis; assay type: in vitro ADME; conditions: fraction unbound, measured or estimated by in silico models of Fuinc
in vitro [2] = conditions: human, hepatocytes; for hepatocyte CLint: both
[3] = Free fraction in HLM incubation, equilibrium dialysis; assay type: in vitro ADME, human; conditions: fraction unbound, measured or estimated by in silico models of Fuinc
in vitro [4] = conditions: human, Caco-2
[5] = CLint in NADH-supplemented human liver microsomes; conditions: for microsomal CLint at 1 µM / CLint scaled at 1 µM: human
Protocol: as §1

[6] = Intrinsic permeability in Caco-2 cells with efflux inhibited; conditions: human, Caco-2
[7] = LogD pH 7.4, octanol/phosphate buffer; conditions: octanol/phosphate buffer, pH 7.4
CYP1A2-Cytb5R = target: T1, CYP1A2-Cytb5R (Homo sapiens, UniProt P05177); assay: Turnover by non-canonical recombinant CYP1A2-Cytb5R; assay type: in vitro ADME; conditions: noncanonical CYP1A2-Cytb5R
T1 construct: purchased BioIVT (custom synthesis) CE00001 (CYP1A2), batch CPD034-1A2-30; host or cells: bactosomes
T1 sequence (P05177 1-516): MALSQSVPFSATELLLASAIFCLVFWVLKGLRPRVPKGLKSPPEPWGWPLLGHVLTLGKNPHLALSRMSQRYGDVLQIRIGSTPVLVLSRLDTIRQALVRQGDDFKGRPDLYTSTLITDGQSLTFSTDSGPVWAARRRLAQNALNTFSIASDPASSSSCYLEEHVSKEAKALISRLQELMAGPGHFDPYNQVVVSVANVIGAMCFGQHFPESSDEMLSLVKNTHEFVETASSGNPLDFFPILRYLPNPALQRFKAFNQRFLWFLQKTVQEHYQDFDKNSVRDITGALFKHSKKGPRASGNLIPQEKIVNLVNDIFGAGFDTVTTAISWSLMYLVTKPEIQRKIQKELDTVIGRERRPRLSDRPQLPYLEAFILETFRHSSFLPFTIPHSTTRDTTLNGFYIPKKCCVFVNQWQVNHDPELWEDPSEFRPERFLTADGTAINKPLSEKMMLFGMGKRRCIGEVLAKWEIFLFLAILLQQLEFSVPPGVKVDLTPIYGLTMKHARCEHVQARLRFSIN
Source text: (§2) As commercial recombinant human CYPs co-express the individual CYP and reductase with an option to include cytochrome b5. A custom synthesis co-expressing CYP3A4 or CYP1A2 and Cytb5R plus cytochrome b5 was, therefore, ordered from BioIVT and the bactosomes were compared with canonical CYP-POR enzymes plus cytochrome b5.

POR = POR for cofactor; cited from earlier work
Cytb5R = Cytb5R for cofactor; cited from earlier work
[8] = target: T2, recombinant human CYP3A4-Cytb5R containing cytochrome b5 (Homo sapiens, UniProt P08684); assay: Midazolam CLint by non-canonical recombinant CYP3A4-Cytb5R with cytochrome b5, with and without gefitinib; assay type: in vitro ADME; conditions: CYP3A4_Cytb5R, NADPH, listed as Mid
T2 construct: purchased BioIVT (custom synthesis) CE00001(CYP3A4), batch CPD034-3A4; host or cells: bactosomes
T2 sequence (P08684 whole entry): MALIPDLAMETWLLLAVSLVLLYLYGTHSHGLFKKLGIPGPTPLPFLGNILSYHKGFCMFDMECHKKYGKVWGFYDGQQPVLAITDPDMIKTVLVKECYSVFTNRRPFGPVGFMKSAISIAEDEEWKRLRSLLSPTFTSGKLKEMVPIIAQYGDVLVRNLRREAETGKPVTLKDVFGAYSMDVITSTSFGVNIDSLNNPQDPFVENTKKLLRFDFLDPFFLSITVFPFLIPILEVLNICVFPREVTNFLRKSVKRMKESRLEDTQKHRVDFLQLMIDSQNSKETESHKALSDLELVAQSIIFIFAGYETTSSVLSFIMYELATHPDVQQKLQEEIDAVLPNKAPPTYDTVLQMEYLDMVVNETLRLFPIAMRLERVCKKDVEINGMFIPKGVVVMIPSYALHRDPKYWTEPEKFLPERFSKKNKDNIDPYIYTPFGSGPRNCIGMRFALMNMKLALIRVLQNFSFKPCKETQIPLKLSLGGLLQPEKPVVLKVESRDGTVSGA
Protocol: as §2
(§3) As the reaction-rate was much higher, aliquots were taken at 0, 1, 2, 3, 4 and 5 min.

[9] = Incubations in human liver S9 + NADPH (same donor pool as HLM); assay type: in vitro ADME; conditions: human, human liver S9, pH 7.4, Midazolam CLint
[10] = Midazolam CLint in HLM with NADPH:NADH (1:1); assay type: in vitro ADME, human; conditions: cofactor NADH:NADPH (1:1) (Fig. 5b)
[11] = Incubations in HLM + NADPH from the same donor pool as S9; assay type: in vitro ADME, human; conditions: for microsomal CLint at 1 µM: human, human liver microsomes, pH 7.4, Midazolam CLint
Source text: Liver S9 (lot 1810001, pool of 50, Xenotech) and HLM (pool of 50, lot 1810003, Xenotech) from the same pool of donors were purchased from Xenotech.

[12] = target: T3, recombinant human CYP3A4-POR containing cytochrome b5 (Homo sapiens, UniProt P08684); assay: Midazolam CLint by canonical recombinant CYP3A4-POR with cytochrome b5, with and without gefitinib; assay type: in vitro ADME; conditions: CYP3A4_POR, NADPH, listed as Mid
T3 construct: purchased BioIVT (named in b64 for the custom bactosomes); host or cells: bactosomes (E. coli is stated for the panel, not for this product)
T3 sequence (P08684 whole entry): as above
Protocol: as §3

[13] = microsomes, pH 7.4, HLM_NADPH CLint, 1 µM, single determination, Fig. 4a,d
[14] = microsomes, pH 7.4, HLM_NADH CLint, 1 µM, single determination, Fig. 4a,d
[15] = microsomes, pH 7.4, NADH_HLM_scaled_CLint,u, Fig. 4a,d
[16] = HLM (same donors as S9) + NADPH + 5 uM GEF (Fig. 6b)
[17] = HLM (same donors as S9) + NADPH, midazolam 1 µM alone (Fig. 6b)

O=C1Nc2ccc(Cl)cc2C(c2ccccc2Cl)=NC1O (stereo not shown) [Lorazepam]
microsomal CLint at 1 µM [1, 13]: 4.99 µL/min/mg
CLint scaled at 1 µM ([1]; microsomes, pH 7.4, NADPH_HLM_scaled_CLint,u, Fig. 4a,d): 6.51 mL/min/kg
fu_ratHH (rat hepatocytes): 0.724
hepatocyte CLint (in vitro [2]; HH_CLint, 1 µM, single determination, Fig. 4a): 2.77 µL/min/1e6 cells
CLint scaled (in vitro [2]; HH_scaled_CLint,u, Fig. 4a): 9.63 mL/min/kg
fu_HLM [3]: 0.724
Papp (in vitro [4]): 67.2 ×10⁻⁶ cm/s
microsomal CLint at 1 µM [5, 14]: 3 µL/min/mg
CLint scaled at 1 µM [5, 15]: 3.92 mL/min/kg

CCOc1ccc(NC(C)=O)cc1 [Phenacetin]
microsomal CLint at 1 µM ([1]; human liver microsomes + NADPH, pH 7.4): 24.5 µL/min/mg
CLint scaled at 1 µM ([1]; human liver microsomes, pH 7.4, NADPH_HLM_scaled_CLint,u, Fig. 4a,d): 24.4 mL/min/kg
fu_ratHH (rat hepatocytes): 0.955
hepatocyte CLint (in vitro [2]): 7.38 µL/min/1e6 cells
CLint scaled (in vitro [2]; HH_scaled_CLint,u, Fig. 4a): 19.5 mL/min/kg
fu_HLM [3]: 0.948
Papp at 2 h, 10 µM [6]: 76.1 ×10⁻⁶ cm/s
logD [7]: 1.48
turnover (metabolite formation or disappearance of parent) (CYP1A2-Cytb5R): no detectable turnover
microsomal CLint at 1 µM ([5]; human liver microsomes + NADH, pH 7.4): 5.68 µL/min/mg
CLint scaled at 1 µM ([5]; human liver microsomes, pH 7.4): 5.66 mL/min/kg

NC(=O)C1=CN([C@@H]2O[C@H](COP(=O)(O)OP(=O)(O)OC[C@H]3O[C@@H](n4cnc5c(N)ncnc54)[C@H](O)[C@@H]3O)[C@@H](O)[C@H]2O)C=CC1 [NADH]
Km (POR): 48000 µM
Km (Cytb5R): 6 µM

NC(=O)C1=CN([C@@H]2O[C@H](COP(=O)(O)OP(=O)(O)OC[C@H]3O[C@@H](n4cnc5c(N)ncnc54)[C@H](OP(=O)(O)O)[C@@H]3O)[C@@H](O)[C@H]2O)C=CC1 [NADPH]
Km (POR): 2 to 15 µM
Km (Cytb5R): 1000 µM

Cc1ncc2n1-c1ccc(Cl)cc1C(c1ccccc1F)=NC2 [Midazolam]
NADPH_HLM_scaled_CLint,u ([1]; Fig. 4a,d): 614.71 mL/min/kg
Midazolam CLint ([1]; HLM + NADPH, control without gefitinib (Fig. 3d)): 265.8 µL/min/mg and 269.7 µL/min/mg
Midazolam scaled CLint,u ([1]; HLM + NADPH, no gefitinib (Fig. 3a)): 531.926 mL/min/kg and 593.803 mL/min/kg
Scaled midazolam CLint,u ([1]; HLM, cofactor NADPH (Fig. 5b)): 703.964 mL/min/kg and 722.238 mL/min/kg
Scaled HLM CLint,u ([1]; NADPH-HLM, individual determinations 1-3, Fig. 1): 632.553 mL/min/kg and 670.23 mL/min/kg
microsomal CLint at 1 µM [1, 13]: 295 µL/min/mg
microsomal CLint at 1 µM ([1]; microsomes, pH 7.4, Midazolam CLint, HLM + NADPH, control without gefitinib (Fig. 3d)): 288 µL/min/mg
CLint scaled at 1 µM ([1]; microsomes, pH 7.4, Midazolam scaled CLint,u, HLM + NADPH, no gefitinib (Fig. 3a)): 619 mL/min/kg
CLint scaled at 1 µM ([1]; microsomes, pH 7.4, Scaled HLM CLint,u average, NADPH-HLM, average, Fig. 1): 649 mL/min/kg
CLint scaled at 1 µM ([1]; microsomes, pH 7.4, Scaled HLM CLint,u, NADPH-HLM, individual determinations 1-3, Fig. 1): 643 mL/min/kg
CLint scaled at 1 µM ([1]; microsomes, pH 7.4, Scaled midazolam CLint,u, HLM, cofactor NADPH (Fig. 5b)): 693 mL/min/kg
Midazolam CLint ([8]; Mid + GEF 5 µM (Fig. 5f)): 19.6 µL/min/nmol and 13.9 µL/min/nmol and 18.8 µL/min/nmol
Midazolam CLint ([8]; Mid alone (Fig. 5f)): 6.9 µL/min/nmol and 5.5 µL/min/nmol and 5.1 µL/min/nmol
microsomal CLint at 1 µM ([9]; S9 + NADPH + 5 uM GEF (Fig. 6b)): 150 µL/min/mg
microsomal CLint at 1 µM ([9]; S9 + NADPH, midazolam 1 µM alone (Fig. 6b)): 77.2 µL/min/mg
fu_ratHH (rat hepatocytes): 0.543
CLint scaled (in vitro [2]; HH_scaled_CLint,u): 90.5 mL/min/kg
CLint scaled (in vitro [2]; Midazolam scaled CLint,u): 104 mL/min/kg
CLint scaled (in vitro [2]; Scaled HH CLint,u): 62.8 mL/min/kg
CLint scaled (in vitro [2]; Scaled HH CLint,u average): 51.2 mL/min/kg
fu_HLM [3]: 0.454
Scaled midazolam CLint,u [10]: 761.569 mL/min/kg and 740.511 mL/min/kg
CLint scaled at 1 µM ([10]; human, human liver microsomes, pH 7.4, Scaled midazolam CLint,u): 762 mL/min/kg
Papp (in vitro [4]): 47.5 ×10⁻⁶ cm/s
Midazolam CLint [11, 16]: 392.5 µL/min/mg and 377.3 µL/min/mg
Percentage of midazolam alone [11, 16]: 121.498% and 119.228% and 122.262%
Midazolam CLint [11, 17]: 329.2 µL/min/mg
microsomal CLint at 1 µM [11, 16]: 336 µL/min/mg
microsomal CLint at 1 µM [11, 17]: 276 µL/min/mg
Midazolam CLint ([12]; Mid + GEF 5 µM (Fig. 5e)): 3292.07 µL/min/nmol and 3281.83 µL/min/nmol and 2734.43 µL/min/nmol
Midazolam CLint ([12]; Mid alone (Fig. 5e)): 4061.76 µL/min/nmol and 4262.77 µL/min/nmol and 3511.63 µL/min/nmol
Midazolam CLint ([5]; HLM + NADH, control without gefitinib (Fig. 3d)): 23.9 µL/min/mg and 21.4 µL/min/mg
Scaled midazolam CLint,u ([5]; HLM, cofactor NADH (Fig. 5b)): 248.867 mL/min/kg and 261.398 mL/min/kg
microsomal CLint at 1 µM [5, 14]: 103 µL/min/mg
microsomal CLint at 1 µM ([5]; microsomes, pH 7.4, Midazolam CLint, HLM + NADH, control without gefitinib (Fig. 3d)): 14.7 µL/min/mg
CLint scaled at 1 µM [5, 15]: 213 mL/min/kg
CLint scaled at 1 µM ([5]; microsomes, pH 7.4, Scaled midazolam CLint,u, HLM, cofactor NADH (Fig. 5b)): 247 mL/min/kg
